Results reported in patent US9605005B2, “Alkynyl alcohols and methods of use” (Genentech, Inc., priority 2013, dated 2017).
Like-named read-outs stand apart in the source and are kept apart here.

Columns and labels:
[1] = tested on: REL-A (p65) nuclear translocation, HeLa cells; assay: REL-A (p65) nuclear translocation assay in HeLa cells (classical NF-kB signaling, TNF-α stimulated); assay type: cell-based; conditions: Homo sapiens, 0.5 h
Protocol: (§1) Several assays were developed to profile the cellular activities of NIK inhibitors.
(§2) (2) A second set of cell assay are used to define the selectivity of NIK inhibitors toward inhibition of classical vs. non-classical NF-kB signaling and rely on quantification of the nuclear translocation of p52 (NF-kB2) and REL-A (p65) using high content cellular imaging. For the p52 (non-classical NF-kB signaling) nuclear translocation assay, HeLa cells are treated with different concentrations of compounds (0.2% DMSO final) in medium containing 10% fetal bovine serum and then stimulated with 100 ng/mL of an anti-lymphotoxin beta receptor antibody (R&D Systems) for 5 hours. In the REL-A nuclear translocation assay, HeLa cells are incubated with compounds (0.2% DMSO final) for 4.5 hours in medium containing 10% fetal bovine serum before stimulating them with 10 ng/mL tumor necrosis factor (TNF)-α (R&D Systems) for 30 minutes. Cells are fixed with 4% paraformaldehyde, permeabilized by adding 0.1% Triton X-100 in phosphate buffered saline, and then are incubated with either 2 ug/mL anti-p52 antibody (Millipore) or 400 ng/mL anti-REL-A (p65) antibody (Santa Cruz Biotechnology). Finally, the cells are incubated with an Alexa488-labeled secondary antibody (Invitrogen) and DRAQ5 DNA stain (Biostatus). Imaging is carried out using an Opera reader (Perkin Elmer) and data are analyzed with the aid of Acapella software (Perkin Elmer). The p52 or REL-Atranslocation into the nucleus is quantified by the ratio of the nuclear to cytoplasmic signal intensity. […] The compounds in listed in Table 1 have the corresponding inhibitory value (IC50 in micromolar) for NIK p52 Translocation Assay as set forth in Table 2.
(§3) The compounds in listed in Table 1 have the corresponding inhibitory values (IC50 in micromolar) for the Translocation Assays as set forth in Table 2.

[2] = target: nuclear factor-kappa B (NF-kB)-inducing kinase (NIK) (Homo sapiens (Human), UniProt Q99558); assay: NIK enzyme inhibition assay (Transcreener ADP, NIK ADP-FP); assay type: biochemical; conditions: purified NIK 0.5 nM, 10 μM ATP, fluorescence polarization; read-out: NIK ADP-FP (Ki μM)
Sequence of nuclear factor-kappa B (NF-kB)-inducing kinase (NIK) (Q99558 whole entry): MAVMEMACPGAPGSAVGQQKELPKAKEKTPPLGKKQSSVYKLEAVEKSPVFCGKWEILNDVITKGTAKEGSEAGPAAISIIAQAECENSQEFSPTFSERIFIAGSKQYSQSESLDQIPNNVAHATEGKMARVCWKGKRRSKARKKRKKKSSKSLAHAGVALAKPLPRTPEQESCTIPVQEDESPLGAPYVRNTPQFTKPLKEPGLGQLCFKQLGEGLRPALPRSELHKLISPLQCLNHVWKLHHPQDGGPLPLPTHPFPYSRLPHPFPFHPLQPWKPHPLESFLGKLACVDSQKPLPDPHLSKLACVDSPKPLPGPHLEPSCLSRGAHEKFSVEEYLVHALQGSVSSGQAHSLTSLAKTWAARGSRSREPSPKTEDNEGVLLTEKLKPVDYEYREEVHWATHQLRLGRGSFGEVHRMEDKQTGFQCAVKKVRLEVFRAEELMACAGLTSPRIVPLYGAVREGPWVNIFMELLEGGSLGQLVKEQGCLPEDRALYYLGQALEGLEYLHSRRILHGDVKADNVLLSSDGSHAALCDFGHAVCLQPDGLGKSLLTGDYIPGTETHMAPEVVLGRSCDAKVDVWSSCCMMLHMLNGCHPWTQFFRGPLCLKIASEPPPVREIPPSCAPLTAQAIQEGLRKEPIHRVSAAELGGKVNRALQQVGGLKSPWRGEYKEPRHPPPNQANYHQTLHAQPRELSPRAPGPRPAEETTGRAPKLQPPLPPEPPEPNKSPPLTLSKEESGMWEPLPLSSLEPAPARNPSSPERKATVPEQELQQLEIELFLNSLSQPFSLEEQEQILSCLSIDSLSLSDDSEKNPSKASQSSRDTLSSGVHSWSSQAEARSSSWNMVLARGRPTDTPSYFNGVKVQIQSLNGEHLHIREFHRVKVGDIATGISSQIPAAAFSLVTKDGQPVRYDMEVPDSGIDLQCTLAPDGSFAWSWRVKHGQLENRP

[3] = tested on: p52 (NF-kB2) nuclear translocation, HeLa cells; assay: p52 (NF-kB2) nuclear translocation assay in HeLa cells (non-classical NF-kB signaling, anti-lymphotoxin beta receptor antibody stimulated); assay type: cell-based; conditions: Homo sapiens, 100 ng/mL anti-lymphotoxin beta receptor antibody for 5 hours, read-out: p52 HeLa Transloc Assay (IC50)
Protocol: as §1, §2, §3

[4] = HeLa cells, 10 ng/mL TNF-α for 30 minutes, read-out: REL-A HeLa Transloc Assay (IC50)

Row | Compound | IC50 [1, 4] [µM] | Ki [2] [nM] | IC50 [3] [nM] | IC50 ([1]; HeLa, read-out: REL-A HeLa Transloc Assay (IC50) [μM]) [µM]
1 | CN1CC[C@@](O)(C#Cc2ccnc(-n3nc(C(N)=O)c4c3CCC(C)(C)C4)c2)C1=O [Compound 64, 1-[4-[2-[(3R)-3-hydroxy-1-methyl-2-oxo-pyrrolidin-3-yl]ethynyl]-2-pyridyl]-5,5-dimethyl-6,7-dihydro-4H-inda-zole-3-carboxamide] | 3.03 | 3.06 | 2310 | –
2 | COc1ccc2c(c1)c(C(N)=O)nn2-c1cc(C#C[C@]2(O)CCN(C)C2=O)ccn1 [Compound 65, 1-[4-[2-[(3R)-3-hydroxy-1-methyl-2-oxo-pyrrolidin-3-yl]ethynyl]-2-pyridyl]-5-meth-oxy-indazole-3-carboxamide] | 2 | 0.05 | 14 | –
3 | CN1CC[C@@](O)(C#Cc2ccnc(-n3nc(C(N)=O)c4cc(Br)ccc43)c2)C1=O [Compound 66, 5-bromo-1-[4-[2-[(3R)-3-hy-droxy-1-methyl-2-oxo-pyrroli-din-3-yl]ethynyl]-2-pyri-dyl]indazole-3-carboxamide] | 20 | 0.15 | 55 | –
4 | Cc1nnc([C@](C)(O)C#Cc2cccc(-n3nc(C(N)=O)c4cccnc43)c2)o1 [Compound 67, 1-[3-[(3R)-3-hydroxy-3-(5-methyl-1,3,4-oxadiazol-2-yl)but-1-ynyl]phenyl]pyrazo-lo[3,4-b]pyridine-3-carbox-amide] | 20 | 3.14 | 893 | –
5 | CN1CC[C@@](O)(C#Cc2cccc(-n3nc(C(N)=O)c4c3COCC4)c2)C1=O [Compound 69, 1-[3-[2-[(3R)-3-hydroxy-1-methyl-2-oxo-pyrrolidin-3-yl]ethynyl]phenyl]-5,7-dihy-dro-4H-pyrano[3,4-c]pyrazole-3-carboxamide] | 20 | 3.98 | 945 | –
6 | CN1CC[C@@](O)(C#Cc2cccc(-n3nc(C(N)=O)c4c3CCOC4)c2)C1=O [Compound 70, 1-[3-[2-[(3R)-3-hydroxy-1-methyl-2-oxo-pyrrolidin-3-yl]ethynyl]phenyl]-6,7-dihy-dro-4H-pyrano[4,3-c]pyrazole-3-carboxamide] | 20 | 0.75 | 864 | –
7 | NC(=O)c1nn(-c2cc(C#C[C@]3(O)CCNC3=O)ccn2)c2cc(F)ccc12 [Compound 71, 6-fluoro-1-[4-[2-[(3R)-3-hy-droxy-2-oxo-pyrrolidin-3-yl]ethynyl]-2-pyridyl]indazole-3-carboxamide] | 20 | 0.64 | 178 | –
8 | NC(=O)c1nn(-c2cc(C#C[C@]3(O)CCc4cccnc43)ccn2)c2cc(F)ccc12 [Compound 72, 6-fluoro-1-[4-[2-[(7R)-7-hy-droxy-5,6-dihydrocyclopen-ta[b]pyridin-7-yl]ethynyl]-2-pyridyl]indazole-3-carbox-amide] | 20 | 0.14 | 247 | –
9 | COc1cc(C#C[C@]2(O)CCN(C)C2=O)cc(-n2nc(C(N)=O)c3cccnc32)c1 [Compound 73, 1-[3-[2-[(3R)-3-hydroxy-1-methyl-2-oxo-pyrrolidin-3-yl]ethynyl]-5-methoxy-phe-nyl]pyrazolo[3,4-b]pyridine-3-carboxamide] | 20 | 1.05 | 119 | –
10 | CN1CC[C@@](O)(C#Cc2cccc(-n3nc(C(N)=O)c4cc(F)cnc43)c2)C1=O [Compound 75, 5-fluoro-1-[3-[2-[(3R)-3-hy-droxy-1-methyl-2-oxo-pyrroli-din-3-yl]ethynyl]phenyl] pyrazolo[3,4-b]pyridine-3-carboxamide] | 20 | 0.24 | 56.9 | –
11 | CN1CC[C@@](O)(C#Cc2cccc(-n3nc(C(N)=O)c4cnc(Cl)cc43)c2)C1=O [Compound 76, 6-chloro-1-[3-[2-[(3R)-3-hy-droxy-1-methyl-2-oxo-pyrroli-din-3-yl]ethynyl]phenyl] pyrazolo[4,3-c]pyridine-3-carboxamide] | 8 | 0.05 | 41.2 | –
12 | Cc1c(Cl)c(C(N)=O)nn1-c1cc(C#C[C@]2(O)CCN(C)C2=O)ccn1 [Compound 78, 4-chloro-1-[4-[2-[(3R)-3-hy-droxy-1-methyl-2-oxo-pyrroli-din-3-yl]ethynyl]-2-pyri-dyl]-5-methyl-pyrazole-3-car-boxamide] | 20 | 16.8 | 2710 | –
13 | CN1CC[C@@](O)(C#Cc2cccc(-c3nc(C(N)=O)n4cccnc34)c2)C1=O [Compound 85, 8-[3-[2-[(3R)-3-hydroxy-1-methyl-2-oxo-pyrrolidin-3-yl]ethynyl]phenyl]imidazo[1,5-a]pyrimidine-6-carboxamide] | 19.2 | 0.05 | 38.6 | –
14 | CN1CC[C@@](O)(C#Cc2cccc(-c3nc(C(N)=O)c4cccnn34)c2)C1=O [Compound 86, 7-[3-[2-[(3R)-3-hydroxy-1-methyl-2-oxo-pyrrolidin-3-yl]ethynyl]phenyl]imidazo[1,5-b]pyridazine-5-carboxamide] | 20 | 0.73 | 356 | –
15 | CN1CC[C@@](O)(C#Cc2cccc(-c3csc(C(N)=O)n3)c2)C1=O [Compound 89, 4-[3-[2-[(3R)-3-hydroxy-1-methyl-2-oxo-pyrrolidin-3-yl]ethynyl]phenyl]thiazole-2-carboxamide] | > 20 | 1.65 | 226 | –
16 | CN1CC[C@@](O)(C#Cc2cccc(-c3nc(C(N)=O)n4ccc(C#N)cc34)c2)C1=O [Compound 90, 7-cyano-1-[3-[2-[(3R)-3-hy-droxy-1-methyl-2-oxo-pyrroli-din-3-yl]ethynyl]phenyl] imidazo[1,5-a]pyridine-3-car-boxamide] | 2 | 0.05 | 63.4 | –
17 | CN1CC[C@@](O)(C#Cc2cccc(-c3nc(C(N)=O)n4ccc(C(F)(F)F)cc34)c2)C1=O [Compound 91, 1-[3-[2-[(3R)-3-hydroxy-1-methyl-2-oxo-pyrrolidin-3-yl]ethynyl]phenyl]-7-(trifluoro-methyl)imidazo[1,5-a]pyri-dine-3-carboxamide] | 20 | 0.15 | 18.9 | –
18 | CN1CC[C@@](O)(C#Cc2cccc(-c3nc(C(N)=O)n4ccncc34)c2)C1=O [Compound 92, 1-[3-[2-[(3R)-3-hydroxy-1-methyl-2-oxo-pyrrolidin-3-yl]ethynyl]phenyl]imidazo[1,5-a]pyrazine-3-carboxamide] | 20 | 0.37 | 25.9 | –
19 | CN1CC[C@@](O)(C#Cc2cccc(-c3nc(C(N)=O)n4cc(Cl)ccc34)c2)C1=O [Compound 93, 6-chloro-1-[3-[2-[(3R)-3-hy-droxy-1-methyl-2-oxo-pyrroli-din-3-yl]ethynyl]phenyl] imidazo[1,5-a]pyridine-3-carboxamide] | 20 | 0.06 | 15.3 | –
20 | CN1CC[C@@](O)(C#Cc2cccc(-c3nc(C(N)=O)n4ccc(Cl)cc34)c2)C1=O [Compound 94, 7-chloro-1-[3-[2-[(3R)-3-hy-droxy-1-methyl-2-oxo-pyrroli-din-3-yl]ethynyl]phenyl] imidazo[1,5-a]pyridine-3-carboxamide] | 6.32 | 0.05 | 7.26 | –
21 | CN1CC[C@@](O)(C#Cc2cccc(-c3ccn4c(C(N)=O)nc(-c5cccc(C#C[C@]6(O)CCN(C)C6=O)c5)c4c3)c2)C1=O [Compound 95, 1,7-bis[3-[2-[(3R)-3-hydroxy-1-methyl-2-oxo-pyrrolidin-3-yl]ethynyl]phenyl]imi-dazo[1,5-a]pyridine-3-carbox-amide] | – | 0.05 | 86.4 | 2
22 | CN1CC[C@@](O)(C#Cc2cccc(-c3nc(C(N)=O)n4ccc(OC5CCC5)cc34)c2)C1=O [Compound 96, 7-(cyclobutoxy)-1-[3-[2-[(3R)-3-hydroxy-1-methyl-2-oxo-pyrrolidin-3-yl]ethynyl]phenyl]imidazo[1,5-a]pyridine-3-carboxamide] | 20 | 0.14 | 60.3 | –
23 | COc1ccn2c(C(N)=O)nc(-c3cccc(C#C[C@]4(O)CCN(C)C4=O)c3)c2c1 [Compound 97, 1-[3-[2-[(3R)-3-hydroxy-1-methyl-2-oxo-pyrrolidin-3-yl]ethynyl]phenyl]-7-methoxy-imidazo[1,5-a]pyridine-3-carboxamide] | 1 | 0.05 | 6.6 | –
